Results from patent EP3932395A1, “STABLE EMULSION CONTAINING AN ACTIVE PHARMACEUTICAL INGREDIENT BASED ON N(3-METHYL-2-OXO-2,3-DIHYDROBENZO[D]OXAZOL-5-YL)DODECANAMIDE, PRODUCTION AND USE” (Dr. August Wolff GmbH & Co. KG Arzneimittel, priority 2020, dated 2022).

Tests used:
[1] = Forced degradation studies; assay type: physicochemical
Source text: Solid samples and sample solutions of N-(3-methyl-2-oxo-2,3-dihydrobenzo[d]oxazol-5-yl)dodecanamide were exposed to stress agents for a defined period and influence of stress on the compound were studied (i.e. the degradation).
The evaluation was expressed as relative percent with respect to t=0 result of unstressed sample (mass balance, % of peak areas).
The stress conditions were adjusted in such way that the degradation varied in a range of approx. 1 to 5% generated impurities.
The following stress conditions were applied: acidic and basic hydrolysis, oxidizing agent, temperature and photolytic conditions.
Solid sample - daylight, laboratory condition (VIS) - exposure time 7 days Solid sample - UV 254 nm, laboratory condition (UV) - exposure time 6 days
Solid sample, 70°C - exposure time 6 days
Sample solution, 3% H2O2, laboratory condition - exposure time 24 h
Sample solution, 0.1M HCI, 50°C - exposure time 24 h
Sample solution, 0.01-0.05M NaOH, 25°C (1M NaOH, 50°C, 1 h) - exposure time 45 min

[2] = tested on: Human lymphoma U937 cells; test: Cellular uptake of [3H]-AEA; assay type: cell-based; conditions: U-937, 100 nM AEA, 15 min pre-incubation, 15 min at 37°C
Method: Human lymphoma U937 cells were grown in RPMI 1640 medium (Invitrogen, Basel, Switzerland) supplemented with 10% fetal bovine serum, […] fungizone (amphotericin B), 100 units/mL penicillin, 100 µg/mL streptomycin, and 2 mM L-glutamine (all from Invitrogen) and selected for the cellular AEA uptake assay. 2.5 x 10^6 cells were collected and suspended in 250 µL of RPMI 1640 medium (Invitrogen, Basel, Switzerland) at 37°C using glass silanized vials. Cells were pre-incubated 15 min at 37°C in presence of the test compound in a concentration range of 10^-11 - 10^-5 M or in presence of the same amount (5 µL) of vehicle control (DMSO). Then a mixture of 0.5 nM [^3H]-AEA (60 Ci/mmol) (American Radiolabeled Chemicals, Inc., San Louis, MO, US) and 99.5 nM of nonradioactive AEA (Tocris Cookson Ltd., Bristol, UK) resulting in a final concentration of 100 nM AEA was added and samples were incubated at 37°C for another 15 minutes. The reaction was stopped by rapid filtration over UniFilter®-96 GF/C (Perkin Elmer, Boston MA, US) pre-soaked with PBS 0.25% BSA (w/v). […] Radioactivity was measured using a Perkin Elmer 1450 Microbeta TRILUX liquid scintillation counter. Results were expressed as % of AEA uptake versus cells treated with solvent and the EC50 and IC50 values were calculated from the sigmoidal curves, which were generated using the GraphPad Prism 5.0 (GraphPad Software, San Diego, CA, US).

[3] = Forced degradation studies; assay type: physicochemical; conditions: 0.05M NaOH, 5 min, room temperature
[4] = Simultaneous Thermal Analysis (STA = TGA + DTA); assay type: physicochemical; conditions: heated 10°C/min from 30°C to 300°C, nitrogen purge
Method: Simultaneous Thermal analysis (STA = TGA (Thermogravimetric Analysis) + DTA (Differential Thermal Analysis)) was performed in order to test the stability of N-(3 -methyl-2-oxo-2,3-dihydrobenzo[d]oxazol-5-yl)dodecanamide (hereinafter "the API") while heating. Approximately 10 mg of the sample was weighed into a ceramic crucible and placed into the chamber of a Perkin-Elmer STA 600 TGA/DTA analyzer at ambient temperature. The sample was then heated at a rate of 10°C/min from 30°C up to 300°C during which time the change in weight was monitored as well as DTA signal. The purge gas used was nitrogen at a flow rate of 20 cm^3/min.

[5] = Particle size distribution of the API by laser diffraction, pre and post jet-mill micronization; assay type: physicochemical
Source text: A Sturtevant qualification micronizer was used to reduce the particle size of the API. The mill was operated with tangential flow (i.e. the nitrogen supply and drug are fed in the same direction in the milling chamber). The material of API as received was fed into the jet mill using a Venturi feed system, where air was used to draw the feed material into the milling chamber. A product filter bag was affixed to the outlet of the mill, through which the exhausts and the milled drug substance collects. The milling conditions were set as follows: Grind gas: Dry nitrogen gas; Grind pressure: 80 psi; Feed pressure: 80 psi; Room conditions: Ambient.
A representative sample, dispersed at an adequate concentration in a suitable liquid, is passed through the beam of a monochromatic light source, preferably from a laser. The light scattered by the particles at various angles is measured by a multi-element detector, and numerical values relating to the scattering pattern are then recorded for subsequent analysis. These numerical scattering values are then transformed, using an appropriate optical model and mathematical procedure, to yield the proportion of total volume to a discrete number of size classes forming a volumetric particle size distribution (e.g., dso describes a particle diameter corresponding to 50% of the cumulative undersize distribution, i.e. 50% of the particles have a diameter that is smaller than a threshold value).
The Particle Size Distribution was determined using Malvern Mastersizer MicroPlus particle size analyzer (Malvern Instruments, UK) and 1% (v/v) Tween 80 in deionized water was used as dispersant for this experiment. The equipment was turned on and the following conditions were set: Analysis Model: Polydisperse; Presentation Code: Frauenhofer (5$$D); Stirring speed: 10 o'clock dial position.
The equipment was left to warm up for about 1 hour and approximately 100 mL of the dispersant was added to the sample dispersion unit. Backgrounds were first measured using the dispersant. A fresh sample was prepared by adding -20 to 50 mg API into ∼2 to 3 mL of the dispersant and this was sonicated for ∼5 minutes. The sample was added dropwise into the sample dispersion unit while stirring the dispersant until a suitable obscuration value was achieved and the particle size distribution could be measured. A minimum of three measurements were made for the pre and post micronized samples.
Alternatively, the Malvern Mastersizer 2000 can be used for the determination of Particle Size Distribution. In this case water is used as dispersant.
For upscaling purposes, the micronization process was transferred to a jet mill AS200 (Hosokawa Alpine, Germany) on which the following experiments were performed. Dry nitrogen and air were used as grind gas in order to determine the gas which is more suitable for the micronization process.

[6] = Solubility screening with standard cream-base excipients; assay type: physicochemical; conditions: Ph.Eur. terms, 15°C to 25°C
Method: A solubility screening with standard excipients for preparation of a cream base (glycerol monostearate 60, cetyl alcohol, MCTs, paraffin, macrogol-20-glycerol monostearate, propylene glycol and water) was performed.
The following procedure was used to prepare the samples for solubility screen: • 1. Weigh out the API • 2. Add individual excipient (both solid and liquid excipients) • 3. Slurry either by roller at RT if liquid excipient, or by shaker at 60°C if the excipient was solid • 4. Shake or sonicate occasionally • 5. Check solubility visually, if API not dissolved, add more excipient • 6. Repeat steps 3 to 5 • 7. Samples prepared in steps 1 through 6 were centrifuged and removed from the top for HPLC. • 8. Dilute each sample to 1 mL. Only samples fully dissolved were checked by HPLC.
In the general notice of Ph.Eur. in statements of solubility the terms used have the following significance, referred to at a temperature between 15°C and 25°C.

[7] = first batch (5 g), post micronization, mean ± SD
[8] = first batch (5 g), pre micronization, mean ± SD
[9] = second batch (200 g), post micronization, mean ± SD
[10] = second batch (200 g), pre micronization, mean ± SD

SMILES: CCCCCCCCCCCC(=O)Nc1ccc2oc(=O)n(C)c2c1 [API, N-(3-methyl-2-oxo-2,3-dihydrobenzo[d]oxazol-5-yl)dodecanamide]
- degradation under basic hydrolysis ([1]; 1M NaOH, 50°C, after 1 hour): completely degraded
- time for which the stressed sample was stable ([1]; 3% H2O2 solution): at least 24 hours
- stability conclusion ([1]; acidic condition): stable
- stability conclusion ([1]; alkaline conditions): not stable
- stability conclusion ([1]; oxidizing condition (H2O2)): stable
- stability conclusion ([1]; photolytic conditions (VIS, UV)): photo stable
- mass balance ([1]; sample solution, 0.1M HCl, 50°C, 24 h): 101.2%
- mass balance ([1]; sample solution, 3% H2O2, 24 h): 98%
- mass balance ([1]; solid sample, 70°C, 6 days): 102.6%
- mass balance ([1]; solid sample, UV 254 nm, 6 days, relative to t=0 unstressed sample): 102.4%
- mass balance ([1]; solid sample, daylight (VIS), 7 days, relative to t=0 unstressed sample): 100.2%
- stability conclusion ([1]; temperature conditions (70°C)): thermo stable
- EC50 [2]: 4 nM
- purity of the measured sample after basic hydrolysis [3]: 89.50 % A
- temperature up to which the material remained stable [4]: ~190 °C
- d90 ([5]; 150 g batch, jet mill AS200, normal air as grind gas, post micronization): 7.43 µm
- d90 ([5]; 200 g batch, jet mill AS200, dry nitrogen as grind gas, post micronization): 8.92 µm
- d10 [5, 7]: 1.11±0.05 µm
- d50 [5, 7]: 2.97±0.05 µm
- d90 [5, 7]: 6.76±0.36 µm
- d10 [5, 8]: 7.53±1.55 µm
- d50 [5, 8]: 33.71±18.61 µm
- d90 [5, 8]: 106.06±56.69 µm
- d90 ([5]; jet mill AS200, batch size 0.913 kg): 4.8 µm
- d90 ([5]; jet mill AS200, batch size 1.035 kg): 5.5 µm
- d90 ([5]; jet mill AS200, batch size 1.073 kg): 4.4 µm
- d90 ([5]; jet mill AS200, batch size 3.60 kg): 7.6 µm
- d10 [5, 9]: 1.96±0.11 µm
- d50 [5, 9]: 4.98±0.10 µm
- d90 [5, 9]: 10.29±0.44 µm
- d10 [5, 10]: 26.90±3.65 µm
- d50 [5, 10]: 69.71±9.95 µm
- d90 [5, 10]: 127.67±18.59 µm
- solubility ([6]; in MCTs): Very slightly soluble (from 1,000 to 10,000)
- solubility ([6]; in propylene glycol): Very slightly soluble (from 1,000 to 10,000)
- solubility ([6]; in water): Practically insoluble (more than 10,000)
